Measured values published in US20120101100A1 (priority 2008, published 2012).

Molecular target: S. aureus GyrB ATPase (Staphylococcus aureus, UniProt P0A0K8)
Assay: S. aureus (SAU) GyrB ATPase inhibition, malachite green phosphate detection (E. coli GyrA + S. aureus GyrB)
Type: biochemical
Details: for inhibition at 1 µM: compound concentration of 1.0 μM unless otherwise noted, average value where assay was carried out more than once, read-out: S. aureus (SAU) GyrB ATPase % Inhibition
How it was run: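 E. coli GyrA and S. aureus GyrB (1.25 nM each) with 500 μM ATP and 5 μg/ml sheared salmon sperm DNA in 50 mM Hepes pH 7.5, 8.0 mM MgCl2. Released phosphate detected with ammonium molybdate/malachite green at 650 nm; 2% DMSO as 0% and 2 μM novobiocin as 100% inhibition; IC50 from 10 concentrations.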

Chain of S. aureus GyrB ATPase (P0A0K8 whole entry): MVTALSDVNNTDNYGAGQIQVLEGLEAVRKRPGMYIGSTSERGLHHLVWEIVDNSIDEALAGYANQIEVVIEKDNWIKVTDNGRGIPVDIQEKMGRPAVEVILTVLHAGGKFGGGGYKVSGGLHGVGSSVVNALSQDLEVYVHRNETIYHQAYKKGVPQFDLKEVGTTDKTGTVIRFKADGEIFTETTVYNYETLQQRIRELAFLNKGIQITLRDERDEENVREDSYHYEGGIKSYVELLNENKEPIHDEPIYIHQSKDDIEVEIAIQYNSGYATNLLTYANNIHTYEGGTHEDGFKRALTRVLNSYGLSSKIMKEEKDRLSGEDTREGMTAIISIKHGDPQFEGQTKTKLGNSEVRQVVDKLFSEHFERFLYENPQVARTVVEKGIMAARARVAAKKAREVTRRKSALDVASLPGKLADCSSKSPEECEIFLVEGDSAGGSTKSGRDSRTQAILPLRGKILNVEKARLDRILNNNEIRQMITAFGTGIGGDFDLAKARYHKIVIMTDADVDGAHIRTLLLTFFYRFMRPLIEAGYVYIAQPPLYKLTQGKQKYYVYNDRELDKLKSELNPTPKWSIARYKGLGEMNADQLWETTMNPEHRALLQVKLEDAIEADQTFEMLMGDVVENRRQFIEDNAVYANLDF
Chain of S. aureus GyrB ATPase (P0AES4 whole entry, further chain): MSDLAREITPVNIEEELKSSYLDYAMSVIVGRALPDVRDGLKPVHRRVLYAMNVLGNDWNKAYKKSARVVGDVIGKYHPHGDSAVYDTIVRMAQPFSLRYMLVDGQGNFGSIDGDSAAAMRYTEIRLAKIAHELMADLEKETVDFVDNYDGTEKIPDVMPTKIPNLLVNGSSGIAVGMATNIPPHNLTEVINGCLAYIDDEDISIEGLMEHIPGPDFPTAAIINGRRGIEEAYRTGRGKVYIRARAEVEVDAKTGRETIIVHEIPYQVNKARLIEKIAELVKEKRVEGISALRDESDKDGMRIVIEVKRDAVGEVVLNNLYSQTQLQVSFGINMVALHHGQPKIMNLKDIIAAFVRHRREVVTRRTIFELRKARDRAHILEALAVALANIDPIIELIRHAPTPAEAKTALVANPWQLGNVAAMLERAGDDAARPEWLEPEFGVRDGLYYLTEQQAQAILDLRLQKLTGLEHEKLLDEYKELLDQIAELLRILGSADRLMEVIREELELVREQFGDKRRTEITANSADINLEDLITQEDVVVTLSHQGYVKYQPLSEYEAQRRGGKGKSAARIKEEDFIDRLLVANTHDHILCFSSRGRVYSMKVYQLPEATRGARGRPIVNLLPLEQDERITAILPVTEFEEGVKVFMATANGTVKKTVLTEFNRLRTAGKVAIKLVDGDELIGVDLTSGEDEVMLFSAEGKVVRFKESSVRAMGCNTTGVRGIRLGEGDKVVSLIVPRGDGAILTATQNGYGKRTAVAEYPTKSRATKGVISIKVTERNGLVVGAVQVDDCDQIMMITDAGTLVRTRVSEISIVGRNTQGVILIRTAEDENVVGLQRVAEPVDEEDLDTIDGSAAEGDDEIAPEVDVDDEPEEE

**Q.** `CCNC(=O)Nc1cc(-c2nc(C(F)(F)F)c(C(=O)NCCOC)s2)c(-c2cncc(-c3nnc(C)o3)c2)cn1` [Example 60, 2-(6-(3-ethylureido)-5′-(5-methyl-1,3,4-oxadiazol-2-yl)-3,3′-bipyridin-4-yl)-N-(2-methoxyethyl)-4-(trifluoromethyl)thiazole-5-carboxamide] was tested. Which inhibition at 1 µM did it give?
**A.** Its inhibition at 1 µM is 92%.

**Q.** `CCNC(=O)Nc1cc(-c2nnc(-c3ccccc3)o2)c(-c2cncc(-c3n[nH]c(=O)o3)c2)cn1` [Example 196] was tested. Which inhibition at 1 µM did it give?
**A.** The inhibition at 1 µM was 118%.

**Q.** Which inhibition at 1 µM does the source give for `CCNC(=O)Nc1cc(-c2nc(C3CC3)cs2)c(-c2cncc(-c3n[nH]c(=O)o3)c2)cn1` [Example 210] here?
**A.** The inhibition at 1 µM was 65%.

**Q.** `CCNC(=O)Nc1cc(-c2nc(C(F)(F)F)cs2)c(-c2nc(-c3n[nH]c(=O)o3)cs2)cn1` [Example 188] was tested. Which inhibition at 1 µM did it give?
**A.** The inhibition at 1 µM was 97%.

**Q.** How did the inhibition at 1 µM turn out when `CCNC(=O)Nc1cc(-c2nc(C(F)(F)F)cs2)c(-c2cncc(-c3nnc(N4CCOCC4)o3)c2)cn1` [Example 154] was run?
**A.** Its inhibition at 1 µM is 105%.

**Q.** Which inhibition at 1 µM does the source give for `CCNC(=O)Nc1cc(-c2nc(-c3ccccc3)cs2)c(-c2cc(OC(C)C)nc(-c3nnc(C)o3)c2)cn1` [Example 82, 1-ethyl-3-(2′-isopropoxy-6′-(5-methyl-1,3,4-oxadiazol-2-yl)-4-(4-phenylthiazol-2-yl)-3,4′-bipyridin-6-yl)urea] here?
**A.** The inhibition at 1 µM was 86%.

**Q.** With `CCNC(=O)Nc1cc(-c2nc(-c3ccccc3)cs2)c(-c2cc(OCC3CC3)nc(-c3n[nH]c(=O)o3)c2)cn1` [Example 85, 1-(2′-(cyclopropylmethoxy)-6′-(5-oxo-4,5-dihydro-1,3,4-oxadiazol-2-yl)-4-(4-phenylthiazol-2-yl)-3,4′-bipyridin-6-yl)-3-ethylurea] as the molecule, how does the inhibition at 1 µM read?
**A.** Its inhibition at 1 µM is 93%.

**Q.** With `CCNC(=O)Nc1cc(-c2nc(C(F)(F)F)cs2)c(-c2cc(-c3n[nH]c(=O)o3)cnc2OCC2CCOCC2)cn1` [Example 112, 1-Ethyl-3-{5′-(5-oxo-4,5-dihydro-1,3,4-oxadiazol-2-yl)-2′-(tetrahydro-2H-pyran-4-ylmethoxy)-4-[4-(trifluoromethyl)-1,3-thiazol-2-yl]-3,3′-bipyridin-6-yl}urea] as the molecule, how does the inhibition at 1 µM read?
**A.** The inhibition at 1 µM was 95%.

**Q.** Which inhibition at 1 µM does the source give for `CCNC(=O)Nc1cc(-n2cc(C(F)(F)F)cn2)c(-c2cncc(-c3n[nH]c(=O)o3)c2)cn1` [Example 148] here?
**A.** Its inhibition at 1 µM is 97%.

**Q.** For `CCNC(=O)Nc1cc(-c2nc(C(F)(F)F)c(C(=O)NCCN3CCN(C)CC3)s2)c(-c2cncc(-c3n[nH]c(=O)o3)c2)cn1` [Example 63], which inhibition at 1 µM is on record?
**A.** The inhibition at 1 µM was 96%.

**Q.** How did the inhibition at 1 µM turn out when `CCNC(=O)Nc1cc(-c2nc(C(F)(F)F)cs2)c(-c2cc(-c3n[nH]c(=O)o3)cnc2OC2CC(C)(C)N(C)C(C)(C)C2)cn1` [Example 218] was run?
**A.** Its inhibition at 1 µM is 99%.

**Q.** How did the inhibition at 1 µM turn out when `CCNC(=O)Nc1cc(-c2nc(-c3cnn(C)c3)cs2)c(-c2cc(-c3n[nH]c(=O)o3)cnc2OC2CCOCC2)cn1` [Example 222] was run?
**A.** Its inhibition at 1 µM is 97%.

**Q.** `CCNC(=O)Nc1cc(-c2nc(C(F)(F)F)cs2)c(-c2cncc(-c3nnc(N4CCC(O)CC4)o3)c2)cn1` [Example 180] was tested. Which inhibition at 1 µM did it give?
**A.** Its inhibition at 1 µM is 96%.

**Q.** For `CCNC(=O)Nc1cc(-c2nc(C(F)(F)F)cs2)c(-c2cncc(-c3nnc(C(C)C)s3)c2)cn1` [Example 5, 1-Ethyl-3-(5′-(5-isopropyl-1,3,4-thiadiazol-2-yl)-4-(4-(trifluoromethyl)thiazol-2-yl)-3,3′-bipyridin-6-yl)urea], which inhibition at 1 µM is on record?
**A.** The inhibition at 1 µM was 112%.

**Q.** How did the inhibition at 1 µM turn out when `CCNC(=O)Nc1cc(-c2nc(-c3cccc(OC)n3)cs2)c(-c2ccnc(-c3nnc(C)o3)c2)cn1` [Example 249, 1-ethyl-3-(4-(4-(6-methoxypyridin-2-yl)thiazol-2-yl)-2′-(5-methyl-1,3,4-oxadiazol-2-yl)-3,4′-bipyridin-6-yl)urea] was run?
**A.** The inhibition at 1 µM was 97%.

**Q.** With `CCNC(=O)Nc1cc(-c2nc(C(F)(F)F)cs2)c(-c2cncc(-c3nnc(CN)o3)c2)cn1` [Example 281, 1-(5′-(5-(aminomethyl)-1,3,4-oxadiazol-2-yl)-4-(4-(trifluoromethyl)thiazol-2-yl)-3,3′-bipyridin-6-yl)-3-ethylurea] as the molecule, how does the inhibition at 1 µM read?
**A.** The inhibition at 1 µM was 94%.

**Q.** `CCNC(=O)Nc1cc(N2CCCC(C)(C)C2)c(-c2cncc(-c3n[nH]c(=O)o3)c2)cn1` [Example 151] was tested. Which inhibition at 1 µM did it give?
**A.** Its inhibition at 1 µM is 97%.

**Q.** `CCNC(=O)Nc1cc(-c2nc(C(F)(F)F)cs2)c(-c2cncc(-c3nnc(C(C)C)o3)c2)cn1` [Example 4] was tested. Which inhibition at 1 µM did it give?
**A.** Its inhibition at 1 µM is 99%.

**Q.** With `CCNC(=O)Nc1cc(-c2nc(C(F)(F)F)cs2)c(-c2nc(-c3ncnn3C)c(-c3n[nH]c(=O)o3)s2)cn1` [Example 37, 1-ethyl-3-(5-(4-(1-mcthyl-1H-1,2,4-triazol-5-yl)-5-(5-oxo-4,5-dihydro-1,3,4-oxadiazol-2-yl)thiazol-2-yl)-4-(4-(trifluoromethyl)thiazol-2-yl)pyridin-2-yl)urea] as the molecule, how does the inhibition at 1 µM read?
**A.** The inhibition at 1 µM was 112%.

**Q.** With `CCNC(=O)Nc1cc(-c2nc(C(F)(F)F)cs2)c(-c2cncc(/C(N)=N/O)c2)cn1` [Example 163, 6′-(3-Ethylureido)-N′-hydroxy-4′-(4-(trifluoromethyl)thiazol-2-yl)-3,3′-bipyridine-5-carboximidamide] as the molecule, how does the inhibition at 1 µM read?
**A.** The inhibition at 1 µM was 96%.

**Q.** Which inhibition at 1 µM does the source give for `CCNC(=O)Nc1cc(-c2nc(C(F)(F)F)cs2)c(-c2cncc(-c3ccn[nH]3)c2)cn1` [Example 134] here?
**A.** The inhibition at 1 µM was 120%.

**Q.** Which inhibition at 1 µM does the source give for `CCNC(=O)Nc1cc(-c2nc(C(F)(F)F)cs2)c(-c2cc(-c3nnc(C)o3)cnc2OC2CCOCC2)cn1` [Example 141] here?
**A.** Its inhibition at 1 µM is 97%.

**Q.** With `CCNC(=O)Nc1cc(-c2nc(C(F)(F)F)cs2)c(-c2cncc(-c3nnc(N4CCCC(O)C4)o3)c2)cn1` (centres unmarked) [Example 181] as the molecule, how does the inhibition at 1 µM read?
**A.** The inhibition at 1 µM was 97%.

**Q.** Which inhibition at 1 µM does the source give for `CCNC(=O)Nc1cc(-c2nc(-c3ccccc3)cs2)c(-c2ccc[n+]([O-])c2)cn1` [Example 130] here?
**A.** Its inhibition at 1 µM is 103%.

**Q.** `CCNC(=O)Nc1cc(-c2nc(C(F)(F)F)cs2)c(-c2cncc(-c3nnc(C(F)(F)F)[nH]3)c2)cn1` [Example 257, 1-ethyl-3-(5′-(5-(trifluoromethyl)-4H-1,2,4-triazol-3-yl)-4-(4-(trifluoromethyl)thiazol-2-yl)-3,3′-bipyridin-6-yl)urea] was tested. Which inhibition at 1 µM did it give?
**A.** Its inhibition at 1 µM is 102%.

**Q.** For `CCNC(=O)Nc1cc(-c2nc(C(F)(F)F)cs2)c(-c2cc(-c3nnc(C)o3)cnc2OCC2CC2)cn1` [Example 234, 1-(2′-(cyclopropylmethoxy)-5′-(5-methyl-1,3,4-oxadiazol-2-yl)-4-(4-(trifluoromethyl)thiazol-2-yl)-3,3′-bipyridin-6-yl)-3-ethylurea], which inhibition at 1 µM is on record?
**A.** The inhibition at 1 µM was 105%.

**Q.** Which IC50 (10 compound concentrations, 500 μM ATP) does the source give for `CCNC(=O)Nc1cc(-c2nc(C(F)(F)F)cs2)c(-c2cccc(C#N)n2)cn1` [Example 32, 1-(6-cyano-4′-(4-(trifluoromethyl)thiazol-2-yl)-2,3′-bipyridin-6′-yl)-3-ethylurea] here?
**A.** Its IC50 is 62 nM.

**Q.** What about the inhibition at 1 µM of the same molecule?
**A.** The inhibition at 1 µM was 106%.

**Q.** Which inhibition at 1 µM does the source give for `CCNC(=O)Nc1cc(-c2nc(C(F)(F)F)cs2)c(-c2cc(-c3n[nH]c(=O)o3)cnc2OCC2CCN(C)CC2)cn1` [Example 223] here?
**A.** Its inhibition at 1 µM is 95%.

**Q.** How did the inhibition at 1 µM turn out when `CCCNC(=O)Nc1cc(-c2nc(C(F)(F)F)cs2)c(-c2cc(-c3nnc(C)o3)cnc2OCCN(C)C)cn1` [Example 167] was run?
**A.** The inhibition at 1 µM was 96%.

**Q.** `CCNC(=O)Nc1cc(-c2nc(C(F)(F)F)cs2)c(-c2cncc(C3=NCCO3)c2)cn1` [Example 26, 1-(5′-(4,5-Dihydrooxazol-2-yl)-4-(4-(trifluoromethyl)thiazol-2-yl)-3,3′-bipyridin-6-yl)-3-ethylurea] was tested. Which inhibition at 1 µM did it give?
**A.** Its inhibition at 1 µM is 105%.

**Q.** Which inhibition at 1 µM does the source give for `CCNC(=O)Nc1cc(-c2nc(C(F)(F)F)cs2)c(-c2cncc(-c3nnc(C4CC4)o3)c2)cn1` [Example 166, 1-(5′-(5-Cyclopropyl-1,3,4-oxadiazol-2-yl)-4-(4-(trifluoromethyl)thiazol-2-yl)-3,3′-bipyridin-6-yl)-3-ethylurea] here?
**A.** Its inhibition at 1 µM is 72%.

**Q.** With `CCNC(=O)Nc1cc(-c2nc(C(F)(F)F)c(C)s2)c(-c2cnc(OC)c(-c3n[nH]c(=O)o3)c2)cn1` [Example 144] as the molecule, how does the inhibition at 1 µM read?
**A.** Its inhibition at 1 µM is 90%.

**Q.** How did the inhibition at 1 µM turn out when `CCNC(=O)Nc1cc(-c2nc(C(F)(F)F)cs2)c(-c2ccc(-c3n[nH]c(=O)o3)nn2)cn1` [Example 191] was run?
**A.** The inhibition at 1 µM was 99%.

**Q.** `CCNC(=O)Nc1cc(-c2nc(C(F)(F)F)cs2)c(-c2cncc(-c3noc(=S)[nH]3)c2)cn1` [Example 18, 1-Ethyl-3-(5′-(5-thioxo-4,5-dihydro-1,2,4-oxadiazol-3-yl)-4-(4-(trifluoromethyl)thiazol-2-yl)-3,3′-bipyridin-6-yl)urea] was tested. Which inhibition at 1 µM did it give?
**A.** Its inhibition at 1 µM is 113%.

**Q.** Which inhibition at 1 µM does the source give for `CCNC(=O)Nc1cc(-c2nc(C(F)(F)F)cs2)c(-c2cncc(-c3nnc(C)o3)c2)cn1` [Example 1, 1-Ethyl-3-(5′-(5-methyl-1,3,4-oxadiazol-2-yl)-4-(4-(trifluoromethyl)thiazol-2-yl)-3,3′-bipyridin-6-yl)urea] here?
**A.** The inhibition at 1 µM was 99%.

**Q.** How did the inhibition at 1 µM turn out when `CCNC(=O)Nc1cc(-c2nc(-c3ccccc3)cs2)c(-c2ccnc(-c3nnc(C)o3)c2)cn1` [Example 96, 1-ethyl-3-(2′-(5-methyl-1,3,4-oxadiazol-2-yl)-4-(4-phenylthiazol-2-yl)-3,4′-bipyridin-6-yl)urea] was run?
**A.** Its inhibition at 1 µM is 100%.

**Q.** For `CCNC(=O)Nc1cc(-c2nc(C(F)(F)F)c(CNCCN3CCOCC3)s2)c(-c2cncc(-c3nnc(C)o3)c2)cn1` [Example 55, 1-ethyl-3-(5′-(5-methyl-1,3,4-oxadiazol-2-yl)-4-(5-((2-morpholinoethylamino)methyl)-4-(trifluoromethyl)thiazol-2-yl)-3,3′-bipyridin-6-yl)urea], which inhibition at 1 µM is on record?
**A.** The inhibition at 1 µM was 96%.

**Q.** With `CCNC(=O)Nc1cc(-c2nc(C(F)(F)F)cs2)c(-c2cncc(-c3nnc([C@@H](N)C4CCCCC4)o3)c2)cn1` [Example 238, (S)-1-(5′-(5-(amino(cyclohexyl)methyl)-1,3,4-oxadiazol-2-yl)-4-(4-(trifluoromethyl)thiazol-2-yl)-3,3′-bipyridin-6-yl)-3-ethylurea] as the molecule, how does the inhibition at 1 µM read?
**A.** The inhibition at 1 µM was 96%.

**Q.** `CCNC(=O)Nc1cc(-c2nc(C(F)(F)F)cs2)c(-c2cc(-c3n[nH]c(=O)o3)cnc2OCCN(C)C)cn1` [Example 100, 1-(2′-(2-(Dimethylamino)ethoxy)-5′-(5-oxo-4,5-dihydro-1,3,4-oxadiazol-2-yl)-4-(4-(trifluoromethyl)thiazol-2-yl)-3,3′-bipyridin-6-yl)-3-ethylurea] was tested. Which inhibition at 1 µM did it give?
**A.** Its inhibition at 1 µM is 98%.

**Q.** Which inhibition at 1 µM does the source give for `CCNC(=O)Nc1cc(-c2nc(C(F)(F)F)cs2)c(-c2cc(-c3n[nH]c(=O)o3)cnc2OC2CCOCC2)cn1` [Example 187] here?
**A.** Its inhibition at 1 µM is 100%.
